Patent US20250115612A1, “CERTAIN 2,5-DIAZABICYCLO[4.2.0]OCTANES AND OCTAHYDROFURO[3,4-B]PYRAZINES AS GLP-1 RECEPTOR MODULATORS” (ASTRAZENECA AB, priority 2021, published 2025)

How the values were obtained:
[1] = target: T1, GLP-1R (Homo sapiens, UniProt P43220); assay: EndoC cAMP accumulation assay (HTRF, EndoC-βH1 cells); type: cell-based; details: EndoC-βH1 human pancreatic β cell line
T1 construct: host or cells: EndoC-βH1
Text: EndoC cAMP Accumulation Assay
A HTRF cAMP assay (cAMP Gs dynamic kit; CisoBio Cat #62AM4PEJ) was used to identify agonists of GLP-1R in a pancreatic insulinoma cell line (EndoC-PH1). […] EndoC-βH1 cells have detectable GLP-1R messenger ribonucleic acid (mRNA) as detected by quantitative polymerase chain reaction (qPCR). […] The EndoC-βH1 cell line is a valid model of human beta cells and applicable for screenings to identify novel drug target candidates (Mol. Metab., 2018, 8, 144-157). CisBio HTRF cAMP kits are based on a competitive immunoassay using cryptate-labelled anti-cAMP antibody and d2-labeled cAMP. The detection kit is intended for the direct quantitative determination of cAMP. The specific signal (i.e. energy transfer) is inversely proportional to the concentration of cAMP in the standard or sample. Test compounds (10 mM in DMSO) were diluted into assay buffer (HBSS (Sigma #H8264) supplemented with 25 mM HEPES (Gibco #15630, pH 7.4), 0.1% BSA (Sigma #A3059) and 0.5 mM IBMX (Sigma #I7018) included fresh on the day of the assay) into 96 well U-bottom plates (Greiner #650201). Diluted compounds were transferred to ECHO source polypropelene plates (Labcyte #P-05525) and dose response curves were dispensed acoustically using ECHO 550 into black shallow-well u-bottom 384-well HTRF Assay Plates (Corning 4514).
Cryovials of EndoC-H1 (supplied at 1×10e^7 cells/vial) were used directly for screening. The cryovials and were removed from N2(l) and thawed rapidly in a 37° C. water bath. The cells were resuspended in assay buffer and centrifuged at 300 g for 5 min. Cells were resuspended in assay buffer at the appropriate concentration, typically at 12e5 cells per mL (3000 cells per well, dependent on cell batch) and 2.5 μL diluted cells were added to all wells of destination plate by Multidrop combi reagent dispenser (Thermofisher). The plates were incubated at rt for 30 min. The assay was stopped by adding 2.5 μL anti-cAMP cryptate solution to all wells and 2.5 μL cAMP-d2 solution (both diluted 1:20 in lysis buffer) to columns 1-22 by Combi drop. A volume of 2.5 μL cAMP-d2 solution was added to wells E23 to P24 and 2.5 μL lysis buffer added to wells A23 to D24 by multichannel pipette. The plates were incubated at rt for 1 h and read on an Envision plate reader using excitation wavelength of 320 nm and emission of 590 nm and 660 nm.
Raw data from Envision is converted to % DeltaF according to the manufacturer's instructions. Dose response curves are analysed via 4-Parameter Logistical Analysis and assay plate Z′ values obtained. Samples are graphed as percentage (%) activation plots compared to GIP (1-42, Bachem H-5645) with assay window defined by negative control as basal cell cAMP levels and positive control are defined by maximum GIP (82.5 nM) signal. GLP-1 (7-36 amide, Bachem H-6795) dose response curve was included on all plates.

[2] = target: T2, human GLP-1R receptor (Homo sapiens, UniProt P43220, L260F); assay: CHOK1 GLP-1R cAMP assay (HTRF); type: cell-based; details: CHO-K1 cells stably expressing human GLP-1R
T2 construct: expressed in transfected cells; host or cells: CHO-K1 (ATCC CCL-61)
T2 sequence (P43220 24-463 L260F): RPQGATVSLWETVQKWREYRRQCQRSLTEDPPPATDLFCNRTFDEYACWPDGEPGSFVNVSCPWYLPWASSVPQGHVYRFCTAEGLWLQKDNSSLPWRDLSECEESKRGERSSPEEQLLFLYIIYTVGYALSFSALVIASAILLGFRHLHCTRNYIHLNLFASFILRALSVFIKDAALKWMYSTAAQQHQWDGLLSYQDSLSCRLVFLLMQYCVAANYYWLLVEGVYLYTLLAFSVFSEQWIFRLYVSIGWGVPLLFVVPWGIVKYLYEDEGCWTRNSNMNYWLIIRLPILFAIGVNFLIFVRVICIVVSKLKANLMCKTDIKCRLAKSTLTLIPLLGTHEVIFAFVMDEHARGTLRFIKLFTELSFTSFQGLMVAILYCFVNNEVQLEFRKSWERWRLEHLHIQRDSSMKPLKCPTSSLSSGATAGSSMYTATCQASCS
Description: A cell line stably expressing the human GLP-1R receptor (NM_002062.5, including the naturally-occurring variant Leu260Phe) in a CHO-K1 (ATCC® CCL-61™) was used for assay.
GLP-1 receptor mediated agonist activity was determined in a cell-based assay measuring cyclic adenosine monophosphate (cAMP) levels in cells using Homogeneous Time-Resolved Fluorescence (HTRF) cAMP detection kit (CisBio catalog #62AM4PEC, cAMP Gs Dynamic range kit). The cAMP detection method is based on a competitive immunoassay, in which cAMP produced by the cells and cAMP labeled with the dye d2 compete for binding to a Europium-Cryptate-labeled anti-cAMP antibody. The specific HTRF signal is inversely proportional to the concentration of cAMP.
Compounds were added to individual well in 384 well-assay plates (Greiner #784076) using an Echo (LabCyte) dispenser from 10 mM stocks. Varying concentration of compounds were added to wells, and DMSO was used to normalize each well to a volume of 100 nL. A dose response curve of GLP-1(7-36)NH2 (Bachem H-6795) was included in each run. 5 μL of cAMP concentration response standards are applied in specified wells in the assay plates. Cryo-preserved cells are thawed and resuspended in assay buffer pre-heated to 37° C. (20 mM 2-[4-(2-hydroxyethyl)piperazin-1-yl]ethanesulfonic acid (HEPES) pH 7.4, lx Hank's Balanced Salt Solution (HBSS, Life Technologies #14065) supplemented with 0.1% (w/v) bovine serum albumin (Sigma, A-7030)). Cells were centrifuged at 250*g for 5 min at rt, and resuspended in room tempered assay buffer to a final density of 0.16*10^6 cell/mL, to deliver 800 cells/well. 5 μL of assay buffer with 1 mM 3-isobutyl-1-methylxanthin (IBMX; Sigma cat I-7018) was dispensed per well in assay plates using a multidrop combi (Thermo Scientific) subsequently 5 μL of cell suspension was distributed to relevant wells in the assay using a multidrop dispenser. Assay plates were incubated 20 min at rt.
Detection reagents, Europium-Cryptate-labeled anti-cAMP antibody and cAMP labeled with the dye d2, are diluted in lysis buffer, provided by the manufacturer. 5 μL of each detection reagent is supplemented to each assay well using a multidrop dispenser. Assay plates are incubated in the dark for at least one h. The HTRF signal is measured using the HTRF module (excitation: 337 nm, emission A: 665 nm and emission B: 620 nm) in Pherastar FSX (BMG Labtech).
Raw data were converted to pM cAMP using the cAMP standard curve included in each run. Converted data were further analyzed in Genedata Screener (Genedata) and EC50 determinations were made from agonist dose-response curves analyzed with a curve fitting program using a 4-parameter logistic dose response equation (Equation y=A+((B−A)/1+((C/x)^D))) where A is no stimulation, B is full stimulation, C is the EC50 and D is the Hill slope). The percent effect was determined relative to a saturating concentration of a full GLP-1R agonist (GLP-1(7-36)NH2 has 100% effect in this assay setup).

T1 sequence (P43220 24-463): as the sequence (P43220 24-463 L260F) above, with F237L counted along it

`O=C(O)c1cc(F)c2nc(CN3CCN(c4cccc(OCc5ccc(Cl)cc5F)n4)[C@@H]4COC[C@@H]43)n(C[C@H]3CCOC3)c2c1` (single isomer, unassigned) [Example 18a] showed an EC50 [1] of 89 nM and an EC50 [2] of 110 nM.
`Cc1nccn1CCn1c(CN2CCN(c3cccc(OCc4ccc(Cl)cc4F)n3)[C@@H]3COC[C@@H]32)nc2ccc(C(=O)O)cc21` (single isomer, unassigned) [Example 25a] showed an EC50 [1] of 170 nM and an EC50 [2] of 110 nM.
Compound `N#Cc1ccc(COc2cccc(N3CCN(Cc4nc5cc(F)c(C(=O)O)cc5n4C[C@@H]4CCO4)[C@H]4CC[C@@H]43)n2)c(F)c1` (single isomer, unassigned) [Example 9a] has an EC50 [1] of 69 nM and an EC50 [2] of 180 nM.
In the case of `CCn1cncc1Cn1c(CN2CCN(c3cccc(OCc4ccc(Cl)cc4F)n3)[C@H]3CC[C@@H]32)nc2c(OC)cc(C(=O)O)cc21` (single isomer, unassigned) [Example 12b], the EC50 [1] is reported as 16 nM and the EC50 [2] is reported as 8.9 nM.
In the case of `N#Cc1ccc(COc2cccc(N3CCN(Cc4nc5ccc(C(=O)O)c(Cl)c5n4C[C@@H]4CCO4)[C@H]4CC[C@H]43)n2)c(F)c1` (single isomer, unassigned) [Example 8a], the EC50 [1] is reported as 28 nM and the EC50 [2] is reported as 6.1 nM.
Compound `O=C(O)c1ccc2nc(CN3CCN(c4cccc(OCc5ccc(Cl)cc5F)n4)[C@@H]4COC[C@@H]43)n(Cc3cccnc3)c2c1` (single isomer, unassigned) [Example 21] has an EC50 [1] of 71 nM and an EC50 [2] of 74 nM.
Compound `N#Cc1ccc(COc2cccc(N3CCN(Cc4nc5c(F)cc(C(=O)O)cc5n4C[C@@H]4CCO4)[C@H]4CC[C@@H]43)n2)c(F)c1` (single isomer, unassigned) [Example 3a, 2-(((1R*,6R*)-5-(6-((4-Cyano-2-fluorobenzyl)oxy)pyridin-2-yl)-2,5-diazabicyclo[4.2.0]octan-2-yl)methyl)-4-fluoro-1-(((S)-oxetan-2-yl)methyl)-1H-benzo[d]imidazole-6-carboxylic acid] has an EC50 [1] of 13 nM and an EC50 [2] of 23 nM.
Compound `Cc1nccn1CCn1c(CN2CCN(c3cccc(OCc4ccc(Cl)cc4F)n3)[C@@H]3COC[C@@H]32)nc2c(Cl)cc(C(=O)O)cc21` (single isomer, unassigned) [Example 24] has an EC50 [1] of 340 nM and an EC50 [2] of 250 nM.
`N#Cc1ccc(COc2cccc(N3CCN(Cc4nc5ccc(C(=O)O)cc5n4C[C@@H]4CCO4)[C@H]4CC[C@H]43)n2)c(F)c1` (single isomer, unassigned) [Example 2a, 2-(((1R*,6S*)-5-(6-((4-Cyano-2-fluorobenzyl)oxy)pyridin-2-yl)-2,5-diazabicyclo[4.2.0]octan-2-yl)methyl)-1-(((S)-oxetan-2-yl)methyl)-1H-benzo[d]imidazole-6-carboxylic acid] was tested, and the EC50 [1] was 4.1 nM and the EC50 [2] was 1.2 nM.
For `Cc1ccnc(Cn2c(CN3CCN(c4cccc(OCc5ccc(C#N)cc5F)n4)[C@@H]4CC[C@@H]43)nc3ccc(C(=O)O)cc32)c1` (racemic) [Example 14, rac-2-(((1R,6S)-5-(6-((4-Cyano-2-fluorobenzyl)oxy)pyridin-2-yl)-2,5-diazabicyclo[4.2.0]octan-2-yl)methyl)-1-((4-methylpyridin-2-yl)methyl)-1H-benzo[d]imidazole-6-carboxylic acid], the EC50 [1] was 2800 nM and the EC50 [2] was 400 nM.
With `N#Cc1ccc(COc2cccc(N3CCN(Cc4nc5ccc(C(=O)O)c(Cl)c5n4C[C@@H]4CCO4)[C@H]4CC[C@H]43)n2)c(F)c1` (single isomer, unassigned) [Example 8b] the EC50 [1] was 41 nM and the EC50 [2] was 28 nM.
With `N#Cc1ccc(COc2cccc(N3CCN(Cc4nc5ccc(C(=O)O)cc5n4C[C@@H]4CCO4)[C@H]4CC[C@H]43)n2)c(F)c1` (single isomer, unassigned) [Example 2b, 2-(((1R*,6S*)-5-(6-((4-Cyano-2-fluorobenzyl)oxy)pyridin-2-yl)-2,5-diazabicyclo[4.2.0]octan-2-yl)methyl)-1-(((S)-oxetan-2-yl)methyl)-1H-benzo[d]imidazole-6-carboxylic acid] the EC50 [1] was 32 nM and the EC50 [2] was 17 nM.
`COc1cc(C(=O)O)cc2c1nc(CN1CCN(c3cccc(OCc4ccc(Cl)cc4F)n3)[C@H]3CC[C@@H]31)n2C[C@@H]1CCO1` (single isomer, unassigned) [Example 5a, 2-(((1R*,6R*)-5-(6-((4-Chloro-2-fluorobenzyl)oxy)pyridin-2-yl)-2,5-diazabicyclo[4.2.0]octan-2-yl)methyl)-4-methoxy-1-(((S)-oxetan-2-yl)methyl)-1H-benzo[d]imidazole-6-carboxylic acid] gave an EC50 [1] of 4 nM and an EC50 [2] of 6.4 nM.
`CCn1cncc1Cn1c(CN2CCN(c3cccc(OCc4ccc(Cl)cc4F)n3)[C@H]3CC[C@@H]32)nc2c(OC)cc(C(=O)O)cc21` (single isomer, unassigned) [Example 12a] was tested, and the EC50 [2] was 2.2 nM.
Compound `CCCCOCCn1c(CN2CCN(c3cccc(OCc4ccc(C#N)cc4F)n3)[C@@H]3CC[C@@H]32)nc2ccc(C(=O)O)cc21` (racemic) [Example 11, rac-1-(2-Butoxyethyl)-2-(((1R,6S)-5-(6-((4-cyano-2-fluorobenzyl)oxy)pyridin-2-yl)-2,5-diazabicyclo[4.2.0]octan-2-yl)methyl)-1H-benzo[d]imidazole-6-carboxylic acid] has an EC50 [2] of 150 nM.
For `CC(C)(C)OCCn1c(CN2CCN(c3cccc(OCc4ccc(C#N)cc4F)n3)[C@@H]3CC[C@@H]32)nc2ccc(C(=O)O)cc21` (racemic) [Example 10, rac-1-(2-(tert-Butoxy)ethyl)-2-(((1R,6S)-5-(6-((4-cyano-2-fluorobenzyl)oxy)pyridin-2-yl)-2,5-diazabicyclo[4.2.0]octan-2-yl)methyl)-1H-benzo[d]imidazole-6-carboxylic acid], the EC50 [2] was 370 nM.
`N#Cc1ccc(COc2cccc(N3CCN(Cc4nc5cc(Cl)c(C(=O)O)cc5n4C[C@@H]4CCO4)[C@H]4CC[C@H]43)n2)c(F)c1` (single isomer, unassigned) [Example 7c] showed an EC50 [2] of 250 nM.
